Data published in PMC6814236, “Monitoring and characterizing soluble and membrane-bound ectonucleotidases CD73 and CD39” (PLoS ONE, 2019).

Assays:
[1] = target: T1, Recombinant Human 5'-Nucleotidase/CD73 (Homo sapiens, UniProt P21589); test: Enzyme activity of purified CD73 (AMP-Glo assay); type: biochemical
T1 construct: purchased R&D Systems
T1 sequence (P21589 27-574): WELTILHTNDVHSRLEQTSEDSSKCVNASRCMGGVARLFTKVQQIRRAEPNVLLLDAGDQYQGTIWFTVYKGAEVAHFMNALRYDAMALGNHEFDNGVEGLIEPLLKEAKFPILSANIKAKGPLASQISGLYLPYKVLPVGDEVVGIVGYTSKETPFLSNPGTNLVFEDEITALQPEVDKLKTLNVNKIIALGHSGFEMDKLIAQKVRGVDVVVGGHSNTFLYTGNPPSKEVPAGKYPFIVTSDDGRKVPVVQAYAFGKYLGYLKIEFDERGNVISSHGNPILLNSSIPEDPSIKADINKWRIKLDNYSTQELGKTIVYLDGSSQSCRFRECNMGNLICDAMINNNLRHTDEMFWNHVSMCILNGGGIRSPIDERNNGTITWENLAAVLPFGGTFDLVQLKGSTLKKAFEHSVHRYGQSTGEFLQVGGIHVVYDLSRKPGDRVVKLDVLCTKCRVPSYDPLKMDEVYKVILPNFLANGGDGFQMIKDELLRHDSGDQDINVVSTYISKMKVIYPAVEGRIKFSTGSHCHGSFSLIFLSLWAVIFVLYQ
Description: • Determination of enzyme activity of purified CD73. In a 25 μl reaction buffer (10mM HEPES, pH 7.4, 2mM MgCl2, 1mM CaCl2, and 0.1mg/ml BSA) containing enzyme and AMP substrate at 1μM to 10μM (96-well format), enzyme activity was performed at 23°C for specified time period and terminated by the addition of equal volume (25μl) of AMP-Glo™ Reagent I containing 50 μM (final concentration) of known CD73 inhibitor, such as AMPCP. Reactions were mixed well and incubated for additional 30 min at 23°C. This was followed by the addition of 50 μl of AMP Detection Solution (10μl of AMP-Glo™ Reagent II per ml of Kinase-Glo® One Solution) and incubated for additional 60 min at 23°C before reading luminescence.

CD39 (His-Tag Human) = target: T2, CD39 (His-Tag Human) (Homo sapiens, UniProt P49961); test: Enzyme activity of purified CD39 with ATP or ADP as substrate; type: biochemical; conditions: 0.1ng CD39, 10 μM ATP or 10 μM ADP, 30min at 37°C
T2 construct: His; purchased R&D Systems
T2 sequence (P49961 1-510): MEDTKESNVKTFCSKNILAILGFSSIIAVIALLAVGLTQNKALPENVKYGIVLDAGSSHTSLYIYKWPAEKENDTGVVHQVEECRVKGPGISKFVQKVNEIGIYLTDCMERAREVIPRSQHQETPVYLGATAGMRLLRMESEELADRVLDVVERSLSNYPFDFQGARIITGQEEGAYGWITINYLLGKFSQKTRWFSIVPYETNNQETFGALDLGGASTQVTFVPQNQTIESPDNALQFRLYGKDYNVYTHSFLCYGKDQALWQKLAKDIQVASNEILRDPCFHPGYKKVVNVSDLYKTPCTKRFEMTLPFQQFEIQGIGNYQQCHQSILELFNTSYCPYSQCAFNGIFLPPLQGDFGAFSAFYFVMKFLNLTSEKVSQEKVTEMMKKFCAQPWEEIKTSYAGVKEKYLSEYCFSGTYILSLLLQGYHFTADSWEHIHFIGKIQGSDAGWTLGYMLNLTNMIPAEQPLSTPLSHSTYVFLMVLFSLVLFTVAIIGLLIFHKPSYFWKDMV
Description: • 2 Determination of enzyme activity of purified cytosolic cN-II. Activity of purified cN-II (Human cytosolic 5'-Nucleotidase) was determined using 25μl reaction buffer (50mM HEPES, pH 7.0, 100mM KCl, 20mM MgCl2, 5mM DTT, 2.5mM dATP, and 0.1mg/ml BSA) containing enzyme and AMP substrate at 10μM (96-well format). Reaction continued at 37°C for 60 minutes or for a certain time period and terminated by the addition of equal volume (25μl) of AMP-Glo™ Reagent I. Reactions were mixed well and incubated for additional 30 min at 23°C. This was followed by the addition of 50 μl of AMP Detection Solution (10μl of AMP-Glo™ Reagent II per ml of Kinase-Glo® One Solution) and incubated for additional 60 min at 23°C before reading luminescence. • 3 Determination of enzyme activity of purified CD39. […] When ATP is used as a substrate, an equal volume of Kinase-Glo® One Solution was added to CD39 reactions and incubated for 15 min before reading luminescence using a luminometer. When ADP is used as a substrate for CD39, after enzyme reaction completion, an equal volume of AMP Detection Solution with a known CD39 known inhibitor, such as POM 1 at 50μM final concentration was added. Reactions were mixed well and incubated for 60min before reading luminescence using luminometer. For enzyme dilution, reaction buffer can be used for dilution of enzymes.

Row | SMILES | effect on CD73 enzyme activity ([1]; purified CD73, 0.1ng, 1μM AMP, 5 min at 23°C (Fig 6)) | inhibitory effect on purified CD39 (CD39 (His-Tag Human)) | Km ([1]; 0.01ng CD73 per reaction, varying AMP, 5min at 23°C) [µM]
1 | CCN(CC)c1ncnc2c1ncn2[C@@H]1O[C@H](COP(=O)(O)OP(=O)(O)C(Br)(Br)P(=O)(O)O)[C@@H](O)[C@H]1O.[Na+].[Na+].[Na+] [ARL 67156, 6-N,N-Diethyl-D-β,γ-dibromomethyleneATP trisodium salt] | no effect | inhibited | 
2 | Nc1ncnc2c1ncn2[C@@H]1O[C@H](COP(=O)(O)O)[C@@H](O)[C@H]1O [AMP, adenosine monophosphate] |  |  | 2.53
